Where two headings read alike, the source gives them in different places. Positions of bridges follow the written chain, without caps; N, C: chain ends. Residues, ends and D or L forms follow the SMILES beside them.
System: primary ovarian cancer cells
Details: 48 h; for LOC441241 Ratio (ACFP/control): NM_441241
Method: We utilized cDNA microarrays to observe the effect of ACFP on gene expression in primary ovarian cancer cells. Cells were treated with 0 (the vehicle group, as control), 5 × 10^6 g/L and 5 × 10^3 g/L ACFP, respectively, and cultured for 48 h at 37 °C in 5 % CO2. Cells were later digested and collected for total RNA extraction using Trizol. The RNA concentrations and purities were detected with a spectrophotometer. The experiments were performed in duplicate on a single total RNA preparation from the cells. Signal values were presented as the mean value of two replicate experiments. RNA samples were used to generate human whole genome expression profiling microarray (Yeli Bioscience Co., Ltd.; Shanghai, China). RNA was subsequently converted into digoxigenin-labeled complementary RNA and hybridized to a human genome microarray system (Human OneArray Microarray, from Phalanx Biotech Group, Taiwan). The chips were scanned by a GeeDom® LuxScan 10 K microarray scanner. LuxScan3.0 software was used to extract probe fluorescence signals and analyze images. Finally, the original data were processed by normalizing.

For `CC[C@H](C)[C@@H]1NC(=O)[C@H](CO)NC(=O)[C@@H]2CCCN2C(=O)[C@H](C)NC(=O)CNC(=O)[C@H](CC(C)C)NC(=O)[C@H](CCCCN)NC(=O)[C@H](CCCCN)NC(=O)[C@H](CCSC)NC(=O)[C@H](CCCNC(=N)N)NC(=O)[C@H](Cc2c[nH]c3ccccc23)NC(=O)[C@H](CCC(N)=O)NC(=O)[C@H](Cc2c[nH]c3ccccc23)NC(=O)[C@H](CCCNC(=N)N)NC(=O)[C@H](CCCNC(=N)N)NC(=O)[C@@H](NC(=O)[C@H](CCCCN)NC(=O)[C@@H](N)Cc2ccccc2)CSSC[C@@H](C(=O)N[C@H](C(=O)N[C@@H](CCCNC(=N)N)C(=O)N[C@@H](CCCNC(=N)N)C(=O)N[C@@H](C)C(=O)N[C@@H](Cc2ccccc2)C(=O)NCC(=O)NCC(=O)NCC(=O)NCC(=O)N[C@@H](CO)C(=O)N2CCC[C@H]2C(=O)NCC(=O)N2CCC[C@H]2C(=O)N[C@H](C(=O)N2CCC[C@H]2C(=O)N[C@@H](CC(N)=O)C(=O)O)[C@@H](C)CC)C(C)C)NC(=O)[C@H]([C@@H](C)O)NC1=O` [ACFP] (H-FKCRRWQWRMKKLGAPSITCVRRAFGGGGSPGPIPN-OH; disulfide 3-20; N-terminus and C-terminus assumed), the “LOC441241 Ratio (ACFP/control)” value (High dose 5×10^-3 g/L) was 5.22, the “GTF2IP1 Ratio (ACFP/control)” value (Low dose 5×10^-6 g/L, NM-002970) was 0.47 and the “IGFBP5 Ratio (ACFP/control)” value (Low dose 5×10^-6 g/L, NM-003488) was 0.45. The “MYLK Ratio (ACFP/control)” value (Low dose 5×10^-6 g/L, NM-004638) was 0.33, the “NKX3-1 Ratio (ACFP/control)” value (Low dose 5×10^-6 g/L, NM-004824) was 2.8 and the “PLA2G5 Ratio (ACFP/control)” value (Low dose 5×10^-6 g/L, NM-005322) was 0.36. The “POLH Ratio (ACFP/control)” value (Low dose 5×10^-6 g/L, NM-005429) was 0.33, the “PSMA1 Ratio (ACFP/control)” value (Low dose 5×10^-6 g/L, NM-005682) was 0.39 and the “STAT5B Ratio (ACFP/control)” value (Low dose 5×10^-6 g/L, NM-006777) was 3.24. The “STAT6 Ratio (ACFP/control)” value (Low dose 5×10^-6 g/L, NM-006778) was 2.06, the “UPP1 Ratio (ACFP/control)” value (Low dose 5×10^-6 g/L, NM-007378) was 0.48 and the “TNFSF18 Ratio (ACFP/control)” value (Low dose 5×10^-6 g/L, NM-008995) was 0.49. For the same compound, the “MAP4K4 Ratio (ACFP/control)” value (Low dose 5×10^-6 g/L, NM-009448) was 0.36, the “BTF/BCLAF1 Ratio (ACFP/control)” value (Low dose 5×10^-6 g/L, NM-009774) was 3.25 and the “TMEFF1 Ratio (ACFP/control)” value (Low dose 5×10^-6 g/L, NM-016522) was 3.33. For the same compound, the “RAB18 Ratio (ACFP/control)” value (Low dose 5×10^-6 g/L, NM-022931) was 0.30, the “TCF/LEF1 Ratio (ACFP/control)” value (Low dose 5×10^-6 g/L, NM-051176) was 0.36 and the “PINX1 Ratio (ACFP/control)” value (Low dose 5×10^-6 g/L, NM-054984) was 0.45. For the same compound, the “RINT-1 Ratio (ACFP/control)” value (Low dose 5×10^-6 g/L, NM-060561) was 0.32, the “C17orf37 Ratio (ACFP/control)” value (Low dose 5×10^-6 g/L, NM-084299) was 0.39 and the “ZNF512 Ratio (ACFP/control)” value (Low dose 5×10^-6 g/L, NM-084450) was 0.31. For the same compound, the “AKT1 Ratio (ACFP/control)” value (Low dose 5×10^-6 g/L, NM_000207) was 0.29, the “ARHE Ratio (ACFP/control)” value (Low dose 5×10^-6 g/L, NM_000390) was 2.99 and the “BAG1 Ratio (ACFP/control)” value (Low dose 5×10^-6 g/L, NM_000573) was 0.48. The “BAX Ratio (ACFP/control)” value (Low dose 5×10^-6 g/L, NM_000581) was 3.73, the “BCL-xl Ratio (ACFP/control)” value (Low dose 5×10^-6 g/L, NM_000598) was 0.28 and the “C1QG Ratio (ACFP/control)” value (Low dose 5×10^-6 g/L, NM_000714) was 2.02. The “CASP3 Ratio (ACFP/control)” value (Low dose 5×10^-6 g/L, NM_000836) was 3.72, the “CCNB1 Ratio (ACFP/control)” value (Low dose 5×10^-6 g/L, NM_000891, cyclinB1) was 0.30 and the “TNFRSF8 Ratio (ACFP/control)” value (Low dose 5×10^-6 g/L, NM_000943, first entry) was 2.05. The “TNFRSF8 Ratio (ACFP/control)” value (Low dose 5×10^-6 g/L, NM_000943, second entry) was 2.02, the “CDC25C Ratio (ACFP/control)” value (Low dose 5×10^-6 g/L, NM_000995) was 0.29 and the “CDKN1A Ratio (ACFP/control)” value (Low dose 5×10^-6 g/L, NM_001026) was 3.24. For the same compound, the “CDKN1A/p21 Ratio (ACFP/control)” value (Low dose 5×10^-6 g/L, NM_001026, second entry) was 3.24, the “CKS2 Ratio (ACFP/control)” value (Low dose 5×10^-6 g/L, NM_001164) was 3.67 and the “DVL1 Ratio (ACFP/control)” value (Low dose 5×10^-6 g/L, NM_001855) was 3.58. For the same compound, the “GRK4 Ratio (ACFP/control)” value (Low dose 5×10^-6 g/L, NM_002868) was 0.42, the “GRK5 Ratio (ACFP/control)” value (Low dose 5×10^-6 g/L, NM_002869) was 0.47 and the “GRK6 Ratio (ACFP/control)” value (Low dose 5×10^-6 g/L, NM_002870) was 0.49. The “GSTM4 Ratio (ACFP/control)” value (Low dose 5×10^-6 g/L, NM_002948) was 2.25, the “GSTM5 Ratio (ACFP/control)” value (Low dose 5×10^-6 g/L, NM_002949) was 3.55 and the “IRF7 Ratio (ACFP/control)” value (Low dose 5×10^-6 g/L, NM_003665) was 3.13. For the same compound, the “ITGA5 Ratio (ACFP/control)” value (Low dose 5×10^-6 g/L, NM_003678) was 0.36, the “PKIA Ratio (ACFP/control)” value (Low dose 5×10^-6 g/L, NM_005569) was 2.52 and the “MAPK3/ERK1 Ratio (ACFP/control)” value (Low dose 5×10^-6 g/L, NM_005595) was 0.36. For the same compound, the “MAPK8/JNK1 Ratio (ACFP/control)” value (Low dose 5×10^-6 g/L, NM_005599) was 2.04, the “MAPK13/p38 delta Ratio (ACFP/control)” value (Low dose 5×10^-6 g/L, NM_005603) was 2.91 and the “PSMB8 Ratio (ACFP/control)” value (Low dose 5×10^-6 g/L, NM_005696) was 2.97. The “TNFRSF1A Ratio (ACFP/control)” value (Low dose 5×10^-6 g/L, NM_007132, first entry) was 3.50, the “TNFRSF1A Ratio (ACFP/control)” value (Low dose 5×10^-6 g/L, NM_007132, second entry) was 3.50 and the “ZNF12 Ratio (ACFP/control)” value (Low dose 5×10^-6 g/L, NM_007559) was 2.07. The “BAT5 Ratio (ACFP/control)” value (Low dose 5×10^-6 g/L, NM_007920) was 3.66, the “PABPN1 Ratio (ACFP/control)” value (Low dose 5×10^-6 g/L, NM_008106) was 3.71 and the “TNFRSF10B Ratio (ACFP/control)” value (Low dose 5×10^-6 g/L, NM_008795) was 2.43. The “STK17B Ratio (ACFP/control)” value (Low dose 5×10^-6 g/L, NM_009262) was 2.01, the “TRAF4 Ratio (ACFP/control)” value (Low dose 5×10^-6 g/L, NM_009618) was 3.34 and the “USP34 Ratio (ACFP/control)” value (Low dose 5×10^-6 g/L, NM_009736) was 3.49. For the same compound, the “GOLGA5 Ratio (ACFP/control)” value (Low dose 5×10^-6 g/L, NM_009950) was 2.46, the “SUI1 Ratio (ACFP/control)” value (Low dose 5×10^-6 g/L, NM_010209) was 2.89 and the “SPINT2 Ratio (ACFP/control)” value (Low dose 5×10^-6 g/L, NM_010653) was 3.58. The “PIK3R5 Ratio (ACFP/control)” value (Low dose 5×10^-6 g/L, NM_023533) was 0.39, the “CARD10 Ratio (ACFP/control)” value (Low dose 5×10^-6 g/L, NM_029775) was 2.43 and the “FLJ39616 Ratio (ACFP/control)” value (Low dose 5×10^-6 g/L, NM_051275) was 3.34. The “GNG12 Ratio (ACFP/control)” value (Low dose 5×10^-6 g/L, NM_055970) was 3.49, the “BCORL1 Ratio (ACFP/control)” value (Low dose 5×10^-6 g/L, NM_063035) was 0.35 and the “CARD14 Ratio (ACFP/control)” value (Low dose 5×10^-6 g/L, NM_079092) was 2.13. For the same compound, the “BCL2L14 Ratio (ACFP/control)” value (Low dose 5×10^-6 g/L, NM_079370) was 2.44, the “FLJ13848 Ratio (ACFP/control)” value (Low dose 5×10^-6 g/L, NM_079829) was 3.28 and the “SNARK Ratio (ACFP/control)” value (Low dose 5×10^-6 g/L, NM_081788) was 3.08. For the same compound, the “C1QTNF6 Ratio (ACFP/control)” value (Low dose 5×10^-6 g/L, NM_114904, first entry) was 3.57, the “C1QTNF6 Ratio (ACFP/control)” value (Low dose 5×10^-6 g/L, NM_114904, second entry) was 3.43 and the “LOC441241 Ratio (ACFP/control)” value (Low dose 5×10^-6 g/L) was 3.48.
